Laboratory results published in BindingDB's records for doi:10.1007/s00044-013-0847-2 (n/a, 2013).
pIC50: −log10 of the molar value.

Tests used:
Acetylcholinesterase = Acetylcholinesterase (Homo sapiens, UniProt P22303); test: Inhibition of AChE (unknown origin) using acetyl thiocholine iodide as substrate after 30 mins by Ellman's method
Cholinesterase = Cholinesterase (Homo sapiens, UniProt P06276); test: Inhibition of BChE (unknown origin) using butyryl thiocholine iodide as substrate after 30 mins by Ellman's method
Sequence of Cholinesterase (P06276 whole entry): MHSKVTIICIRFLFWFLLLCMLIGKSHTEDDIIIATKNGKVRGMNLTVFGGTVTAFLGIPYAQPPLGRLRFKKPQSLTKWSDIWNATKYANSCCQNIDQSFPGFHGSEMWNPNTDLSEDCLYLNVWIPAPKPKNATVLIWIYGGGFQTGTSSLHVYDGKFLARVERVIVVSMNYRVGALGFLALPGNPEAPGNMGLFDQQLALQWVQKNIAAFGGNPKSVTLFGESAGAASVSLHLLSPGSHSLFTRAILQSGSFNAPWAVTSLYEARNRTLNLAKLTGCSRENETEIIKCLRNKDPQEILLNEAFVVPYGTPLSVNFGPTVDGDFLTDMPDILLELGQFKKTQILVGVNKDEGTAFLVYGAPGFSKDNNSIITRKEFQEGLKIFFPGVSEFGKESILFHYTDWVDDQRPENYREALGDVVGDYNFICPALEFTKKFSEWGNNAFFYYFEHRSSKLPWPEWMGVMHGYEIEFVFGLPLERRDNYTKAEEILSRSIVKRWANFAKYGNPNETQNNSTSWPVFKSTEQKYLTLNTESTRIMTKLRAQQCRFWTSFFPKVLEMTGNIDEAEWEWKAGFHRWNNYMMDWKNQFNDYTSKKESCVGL

Sequence of Acetylcholinesterase (P22303 whole entry): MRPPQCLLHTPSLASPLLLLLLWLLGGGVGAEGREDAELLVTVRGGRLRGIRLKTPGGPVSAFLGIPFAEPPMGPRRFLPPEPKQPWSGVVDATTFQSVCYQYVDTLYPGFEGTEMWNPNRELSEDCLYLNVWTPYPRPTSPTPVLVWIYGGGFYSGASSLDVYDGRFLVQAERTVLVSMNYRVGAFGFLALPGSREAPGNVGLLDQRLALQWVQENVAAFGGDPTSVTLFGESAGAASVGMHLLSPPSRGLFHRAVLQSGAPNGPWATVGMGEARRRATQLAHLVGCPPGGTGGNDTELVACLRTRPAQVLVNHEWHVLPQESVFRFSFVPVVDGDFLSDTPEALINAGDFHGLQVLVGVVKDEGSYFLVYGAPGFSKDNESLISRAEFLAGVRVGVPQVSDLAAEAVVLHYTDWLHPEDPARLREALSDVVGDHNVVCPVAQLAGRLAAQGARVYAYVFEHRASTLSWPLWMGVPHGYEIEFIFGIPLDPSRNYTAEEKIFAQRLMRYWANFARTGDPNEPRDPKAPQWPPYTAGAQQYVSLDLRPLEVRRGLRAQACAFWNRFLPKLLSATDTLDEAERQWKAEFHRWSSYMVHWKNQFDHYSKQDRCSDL

Row | Structure (SMILES) | pIC50 (Acetylcholinesterase) | pIC50 (Cholinesterase)
1 | O=C1NC(=O)C(=CNNC(=S)Nc2cccc(C(F)(F)F)c2)C(=O)N1 | 4.39 | 3.87
2 | O=C1NC(=S)NC(=O)C1=CNNC(=S)Nc1ccc(Cl)cc1 | 3.92 | 4.12
3 | O=C1NC(=S)NC(=O)C1=CNNC(=S)Nc1ccccc1 | 3.94 | 4.24
4 | NC(=S)NNC=C1C(=O)NC(=O)NC1=O | 3.92 | 4.25
5 | CC(=O)NC=C1C(=O)NC(=O)NC1=O | 4.04 | 3.94
6 | O=C1NC(=S)NC(=O)C1=CNNC(=S)Nc1ccc(C(F)(F)F)cc1 | 4.00 | 5.09
7 | O=C(NNC=C1C(=O)NC(=S)NC1=O)Nc1ccccc1 | 4.13 | 5.48
8 | COc1ccc(NC(=S)NNC=C2C(=O)NC(=S)NC2=O)cc1 | 3.69 | 4.25
9 | O=C1NC(=S)NC(=O)C1=CNNC(=S)Nc1ccc(Br)cc1 | 4.10 | 4.16
10 | N#Cc1ccc(NC(=S)NNC=C2C(=O)NC(=O)NC2=O)cc1 |  | 3.64
11 | O=C1NC(=S)NC(=O)C1=CNNC(=S)Nc1ccc(F)cc1 | 4.11 | 4.24
12 | Cc1cccc(Cl)c1NC(=S)NNC=C1C(=O)NC(=O)NC1=O |  | 5.06
13 | O=C1NC(=O)C(=CNNC(=O)Nc2ccccc2)C(=O)N1 |  | 4.41
